The values that follow come from patent US20260335299A1, “SUBSTITUTED OXOISOINDOLINYL PIPERIDINE-2,6-DIONE COMPOUND AS ANTICANCER AGENT” (BRISTOL-MYERS SQUIBB COMPANY, priority 2023, published 2026).

Like-named read-outs stand apart in the source and are kept apart here.

The target of one experiment is T1, IKZF4 Eos (Homo sapiens, UniProt Q96SW2+Q9H2S9).
T1 construct: Human CD4+ T cells were isolated from fresh healthy leukopaks; endogenous in cells; host or cells: FACS-sorted primary human regulatory T cells from healthy leukopaks
As to the kind of experiment: Human Regulatory T Cell Reprogramming Assay (Eos). It is filed as cell-based. As to the method:
Human CD4+ T cells were isolated from fresh healthy leukopaks (Stemcell Technologies) using the RosetteSep Human CD4+ T cell enrichment cocktail (Stemcell Technologies) and Ficoll density gradient centrifugation. Leukopaks were diluted with an equal volume of phosphate-buffered saline (PBS [Gibco]) supplemented with 2% fetal bovine serum (FBS, VWR Lifescience) and incubated with RosetteSep Human CD4^+ T cell enrichment cocktail for 20 minutes before layering on Ficoll-Paque Plus solution (GE Health Care). The cell-rich interface layer was harvested and washed twice with PBS supplemented with 2% FBS. Regulatory T cells were then isolated manually using the EasySep Human CD4^+CD1271WCD25^+ Regulatory T cell isolation kit (Stemcell Technologies) according to the manufacturer's instructions. Cells were rested overnight in Roswell Park Memorial Institute (RPMI) 1640 media (Gibco) supplemented with 10% FBS, Pen/Strep (Gibco), MEM-NEAA (Gibco), and sodium pyruvate (Gibco) in a humidified incubator (37° C., 5% CO2). Cells were then stained for CD4 (clone: RPA-T4, Biolegend), CD25 (clone: 2A3, BD Biosciences), and CD127 (clone: hIL-7R-M21, BD Biosciences). CD4+CD12710WCD25+ cells were sorted on a BD FACS Aria Fusion sorter to a purity of 95% or greater. Sorted cells were immediately used or cryopreserved for downstream assays.
Fresh or cryopreserved FACS-sorted CD4+CD127^lowCD25^+ Treg cells were cultured at 25,000-50,000 cells/well of 96-well round bottom plates in RPMI 1640 media (Gibco) supplemented with 10% FBS, Pen/Strep (Gibco), MEM-NEAA (Gibco), and sodium pyruvate (Gibco). Cells were stimulated with Treg Xpander beads (Thermo Fisher) at cells-to-beads ratio of 1:4 in the presence of 500 U/mL recombinant human IL-2 (Proleukin). Compounds were added at titrated doses and cells were incubated at 37° C., 5% CO2 for 12-13 days. Recombinant human IL-2 and compound were replenished every 2-3 days during the entire culture duration. On day 12 or 13, cells were restimulated with phorbol 12-myristate 13-acetate (PMA) and ionomycin in the presence of the protein transport inhibitors brefeldin A and monensin (eBioscience Cell Stimulation Cocktail plus protein transport inhibitors, 500×, Catalog number 00-4975-93) before proceeding with flow cytometry staining and analysis.
For flow cytometry staining, cells were washed twice with flow cytometry staining buffer (Thermo Fisher) and incubated in Human Tru-stain Fc block (Biolegend) for 10 minutes before adding eFluor780 viability dye (Thermo Fisher) and surface marker antibody cocktail for 30 minutes at 4° C. […] Data were analyzed using FlowJo version 10 and GraphPad Prism Software.
Table C-1 lists the maximum observed degradation of the IKZF2 protein and IKZF4 protein as measured in the Human Regulatory T Cell Reprogramming assay. […]

In another experiment the target is IKZF1 Ikaros (Homo sapiens, UniProt Q13422+Q96SW2). The experiment is described as follows: Human Regulatory T Cell Degradation Assay (Ikaros). The following applies: human regulatory T cells, 20 h. It is filed as cell-based. As to the method: Cryopreserved human regulatory T cells were thawed in RPMI+10% FBS+20 ng/mL IL-2. After being spun at 1200 rpm for 5 mins, the cells were resuspended in RPMI+10% FBS+20 ng/ml and rested at 37° C. with 5% CO2 for 3 hours. The cells were then plated at 40,000 cells/well in 40 μL RPMI+10% FBS+20 ng/mL human IL-2 in a 384 well cell culture plate prior to using acoustic dispensing technology (ECHO 555) for adding compounds of interest. Cell cultures were incubated for 20 hours at 37° C. and 5% CO2. In order to facilitate analysis, cell cultures were spun down at 1200 rpm for 5 minutes and the supernatant was discarded using an EL406 plate washer. After washing three times with […] PBS, cell pellets were resuspended in 50 μL of […] viability staining solution (Life Technologies, Cat #L34975) and incubated for 30 minutes on ice protected from light. Cells were washed three times with 70 μL PBS+0.5% BSA using an EL406 plate washer. After shaking the plate to dislodge the cell pellet, cells were resuspended in 50 μL of Fixation Buffer (eBioScience FoxP3 buffer set 00-5523-00) for 60 minutes at room temperature. After centrifuging and discarding the supernatant, cells were permeabilized with 50 μL of permeabilization buffer (eBioScience FoxP3 buffer set 00-5523-00) for 10 minutes at room temperature. Following permeabilization, cells were spun down and the supernatant was replaced with 30 μL fluorescently labelled antibodies against the intracellular targets Helios (Helios-APC [BioLegend, Cat #137222, 1:50])]), Aiolos, and Ikaros 1× Permeabilization buffer and staining reactions were incubated for 1 hour at room temperature; protected from light. Subsequently, […] Permeabilization buffer was added prior to centrifuging the cells and discarding the supernatant. Stained cells were resuspended in 30 μL of flow cytometry staining buffer (PBS+0.5% BSA) and analyzed using an Intellicyt Ique Plus flow cytometer.
Table B-1 lists the maximum observed degradation of the IKZF1 protein and IKZF2 protein as measured in the Human Regulatory T Cell Degradation assay. The results in Table B-1 were rounded to two digits. In the Human Regulatory T Cell Degradation assay, a value of 100% indicated no detectable protein remaining or complete degradation of the protein; and a value of 0% indicated no detectable degradation of the protein by the test compound.

T1 sequence (Q9H2S9 whole entry): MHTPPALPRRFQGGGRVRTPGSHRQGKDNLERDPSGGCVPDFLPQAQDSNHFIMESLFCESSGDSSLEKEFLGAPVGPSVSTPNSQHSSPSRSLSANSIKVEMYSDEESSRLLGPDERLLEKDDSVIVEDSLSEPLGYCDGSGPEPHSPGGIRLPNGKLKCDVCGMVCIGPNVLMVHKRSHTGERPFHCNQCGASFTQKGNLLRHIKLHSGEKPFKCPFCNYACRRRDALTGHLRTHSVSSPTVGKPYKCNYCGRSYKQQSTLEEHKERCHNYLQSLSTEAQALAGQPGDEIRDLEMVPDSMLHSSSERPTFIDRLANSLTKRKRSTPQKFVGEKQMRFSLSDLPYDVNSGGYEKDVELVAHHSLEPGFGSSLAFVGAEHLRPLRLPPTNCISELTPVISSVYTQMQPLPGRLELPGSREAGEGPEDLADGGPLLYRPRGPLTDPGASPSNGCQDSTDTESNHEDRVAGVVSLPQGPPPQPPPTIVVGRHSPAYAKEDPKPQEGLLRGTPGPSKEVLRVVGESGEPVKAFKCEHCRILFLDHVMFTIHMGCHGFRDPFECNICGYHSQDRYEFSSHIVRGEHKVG
T1 sequence (Q96SW2 whole entry): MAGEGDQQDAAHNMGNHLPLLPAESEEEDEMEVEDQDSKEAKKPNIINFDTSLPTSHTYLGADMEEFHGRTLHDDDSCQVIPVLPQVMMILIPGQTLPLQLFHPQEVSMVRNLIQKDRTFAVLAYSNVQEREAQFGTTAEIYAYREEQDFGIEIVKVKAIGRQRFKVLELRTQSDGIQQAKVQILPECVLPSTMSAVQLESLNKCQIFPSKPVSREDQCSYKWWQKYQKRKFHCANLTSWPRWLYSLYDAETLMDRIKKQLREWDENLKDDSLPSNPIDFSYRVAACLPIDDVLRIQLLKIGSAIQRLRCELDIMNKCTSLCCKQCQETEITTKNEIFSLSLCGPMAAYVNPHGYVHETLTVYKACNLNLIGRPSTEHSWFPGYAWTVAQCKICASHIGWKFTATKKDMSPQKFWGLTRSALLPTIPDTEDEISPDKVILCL
T1 sequence (Q16531 whole entry partner): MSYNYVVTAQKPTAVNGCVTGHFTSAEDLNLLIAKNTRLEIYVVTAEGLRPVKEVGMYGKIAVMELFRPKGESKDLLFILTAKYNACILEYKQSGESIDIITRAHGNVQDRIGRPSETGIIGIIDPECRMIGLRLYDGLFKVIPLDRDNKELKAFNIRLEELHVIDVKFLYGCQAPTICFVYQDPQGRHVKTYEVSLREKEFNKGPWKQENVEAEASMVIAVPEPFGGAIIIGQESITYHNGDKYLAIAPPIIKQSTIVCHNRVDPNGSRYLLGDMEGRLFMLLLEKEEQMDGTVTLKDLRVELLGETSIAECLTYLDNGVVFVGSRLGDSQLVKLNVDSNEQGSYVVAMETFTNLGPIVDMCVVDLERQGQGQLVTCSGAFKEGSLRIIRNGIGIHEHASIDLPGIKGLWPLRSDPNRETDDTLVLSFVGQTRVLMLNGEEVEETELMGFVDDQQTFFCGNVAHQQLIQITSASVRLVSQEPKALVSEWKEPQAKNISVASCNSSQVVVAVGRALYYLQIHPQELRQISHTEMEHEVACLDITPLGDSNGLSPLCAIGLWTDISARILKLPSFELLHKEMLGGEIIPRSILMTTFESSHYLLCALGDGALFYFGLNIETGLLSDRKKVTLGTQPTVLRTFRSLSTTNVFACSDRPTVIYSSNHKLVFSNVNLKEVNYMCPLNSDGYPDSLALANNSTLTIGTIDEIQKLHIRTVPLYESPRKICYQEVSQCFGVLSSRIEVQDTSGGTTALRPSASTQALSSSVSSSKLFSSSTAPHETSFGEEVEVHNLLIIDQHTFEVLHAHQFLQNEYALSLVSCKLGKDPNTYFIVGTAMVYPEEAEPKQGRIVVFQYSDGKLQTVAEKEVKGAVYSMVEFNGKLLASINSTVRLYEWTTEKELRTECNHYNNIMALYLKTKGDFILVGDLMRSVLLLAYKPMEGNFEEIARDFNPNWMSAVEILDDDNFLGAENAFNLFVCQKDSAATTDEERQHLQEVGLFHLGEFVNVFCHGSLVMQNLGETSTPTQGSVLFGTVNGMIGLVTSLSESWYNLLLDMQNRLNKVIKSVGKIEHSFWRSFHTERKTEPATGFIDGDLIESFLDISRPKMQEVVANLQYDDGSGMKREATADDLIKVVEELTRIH
Chain of IKZF1 Ikaros (Q13422 whole entry): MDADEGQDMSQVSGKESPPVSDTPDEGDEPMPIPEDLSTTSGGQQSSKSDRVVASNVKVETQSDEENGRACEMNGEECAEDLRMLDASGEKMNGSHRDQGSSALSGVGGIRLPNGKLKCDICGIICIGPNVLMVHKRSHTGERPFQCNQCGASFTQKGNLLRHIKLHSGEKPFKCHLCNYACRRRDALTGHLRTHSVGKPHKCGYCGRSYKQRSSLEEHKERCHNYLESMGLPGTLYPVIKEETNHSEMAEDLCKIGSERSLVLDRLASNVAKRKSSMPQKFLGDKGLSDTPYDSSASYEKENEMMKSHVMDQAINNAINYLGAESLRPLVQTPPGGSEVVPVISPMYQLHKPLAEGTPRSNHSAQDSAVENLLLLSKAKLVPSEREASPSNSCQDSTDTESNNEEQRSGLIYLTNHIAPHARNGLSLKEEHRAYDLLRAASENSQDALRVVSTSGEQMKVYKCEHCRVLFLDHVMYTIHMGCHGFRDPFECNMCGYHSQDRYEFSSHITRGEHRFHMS
Chain of IKZF1 Ikaros (Q96SW2 whole entry): as the sequence (Q96SW2 whole entry) above
Chain of IKZF1 Ikaros (Q16531 whole entry partner): as the sequence (Q16531 whole entry partner) above

With `Nc1nc(-c2ccc3c(c2F)CN(C2CCC(=O)NC2=O)C3=O)ccc1CN1CC(C2CCC(F)(F)CC2)C1` (stereo not drawn) [Example 1, 3-(5-(6-Amino-5-((3-(4,4-difluorocyclohexyl)azetidin-1-yl)methyl)pyridin-2-yl)-4-fluoro-1-oxoisoindolin-2-yl) piperidine-2,6-dione], the Dmax at IKZF4 Eos (Regulatory T cell, human, text summary of Table C-1, read-out: decreased the level of IKZF4 (Eos)) was ≥ 71%; on IKZF4 Eos (Regulatory T cell, human Treg cells, stimulated, 12-13 days, read-out: IKZF4 Eos Maximum Observed Degradation), 71 to 72%; on IKZF4 Eos (summary table, Human T Regulatory Cell Reprogramming Assay (Table C-1), read-out: IKZF4 Eos max % deg. observed (Table E)), 71 to 72%; on IKZF1 Ikaros (Regulatory T cell, read-out: IKZF1 Ikaros max % deg. observed) it was 62%. Also, the DC50 was 1.3 to 1.6 nM at IKZF4 Eos (human Treg cells, stimulated, 12-13 days, concentration reducing protein level by 50% compared to DMSO alone) and 194 nM on IKZF1 Ikaros (concentration reducing protein level by 50% compared to DMSO alone).
